Reference: ChEMBL document CHEMBL1130777, “L-374,087, an efficacious, orally bioavailable, pyridinone acetamide thrombin inhibitor” (Bioorg Med Chem Lett, 1998)
pKi: −log10 of the molar value.

Key:
[1] = target: Serine protease 1 (Homo sapiens, UniProt P07477); experiment: Binding affinity towards trypsin was evaluated
[2] = target: Prothrombin (Homo sapiens, UniProt P00734); experiment: Binding affinity towards thrombin was evaluated
[3] = Compound was evaluated for the oral bioavailability after oral administration in dog.; format: ADME, organism-based, Canis lupus familiaris; conditions: in vivo, read-out: Bioavailabiility
[4] = Compound was evaluated for the half life period after iv administration in Beagle dog.; format: ADME, organism-based, Canis lupus familiaris; conditions: in vivo
[5] = Oral bioavailability after 5 mg/kg in cynomolgus monkey was determined; format: ADME, organism-based; conditions: cercopithecidae, in vivo, read-out: Bioavailabiility
[6] = Compound was evaluated for the half life period after iv administration in cynomolgus monkey; format: ADME, organism-based; conditions: cercopithecidae, in vivo
[7] = Maximum concentration was evaluated after 75 min after administration in dog; format: ADME, organism-based, Canis lupus familiaris; conditions: in vivo
[8] = test system: Rattus norvegicus; experiment: Incidence of occlusion was determined in the rat ferric chloride arterial thrombosis model at 5 dose ug/kg/min after intravenous administration; 1/6; format: functional
[9] = test system: Rattus norvegicus; experiment: Incidence of occlusion was determined in the rat ferric chloride arterial thrombosis model at 1 dose ug/kg/min after intravenous administration; 5/6; format: functional
[10] = test system: Rattus norvegicus; experiment: Incidence of occlusion was determined in the rat ferric chloride arterial thrombosis model at 10 dose ug/kg/min after intravenous administration; 0/9; format: functional
[11] = test system: Rattus norvegicus; experiment: Incidence of occlusion was determined in the rat ferric chloride arterial thrombosis model at 3 dose ug/kg/min after intravenous administration; 2/6; format: functional

Sequence of Serine protease 1 (P07477 whole entry): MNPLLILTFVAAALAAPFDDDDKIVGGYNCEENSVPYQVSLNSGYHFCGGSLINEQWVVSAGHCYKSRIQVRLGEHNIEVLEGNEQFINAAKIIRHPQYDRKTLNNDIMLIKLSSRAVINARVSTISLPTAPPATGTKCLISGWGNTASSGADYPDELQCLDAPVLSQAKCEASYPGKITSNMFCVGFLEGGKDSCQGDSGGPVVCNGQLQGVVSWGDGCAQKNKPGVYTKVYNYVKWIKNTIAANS

| pKi [1] | pKi [2] | Structure (SMILES) | also measured |
| --- | --- | --- | --- |
| 5.82 | 7.92 | Cc1cc(N)ncc1CNC(=O)Cn1c(C)ccc(NS(=O)(=O)Cc2ccccc2)c1=O | – |
| 5.52 | 7.96 | Cc1ccc(NS(=O)(=O)Cc2ccccc2)c(=O)n1CC(=O)NCc1ccc(N)nc1 | – |

Second part, the compound before the results:

| Structure (SMILES) | pKi [1] | pKi [2] | also measured |
| --- | --- | --- | --- |
| Cc1nc(N)ccc1CNC(=O)Cn1c(C)ccc(NCCc2ccccc2)c1=O | 5.37 | 8.64 | – |
| Cc1cc(N)nc(C)c1CNC(=O)Cn1c(C)ccc(NS(=O)(=O)Cc2ccccc2)c1=O | 5.68 | 9.48 | – |
| Cc1nc(N)ccc1CNC(=O)Cn1cccc(NS(=O)(=O)Cc2ccccc2)c1=O | 4.70 | 7.59 | – |
| Cc1nc(N)ccc1CNC(=O)Cn1c(C)ccc(NS(=O)(=O)Cc2ccccc2)c1=O.Cl | – | – | bioavailability [3]: 44%; half-life [4]: 1.5 h; bioavailability [5]: 19%; half-life [6]: 2.42 h; Cmax [7]: 990 nM |
| Cc1nc(N)ccc1CNC(=O)Cn1c(C)ccc(NS(=O)(=O)Cc2ccccc2)c1=O [L-374087] | – | – | Incidence of occlusion [8]: 1; Incidence of occlusion [9]: 5; Incidence of occlusion [10]: 0; Incidence of occlusion [11]: 2 |
